The values that follow come from US20060058268A1, “Compounds and methods for treating diabetic vascular diseases” (priority 2004, published 2006).

In one data set the test system is VCAM-1. The data set is described as follows: VCAM-1 assay with ELISA readout (Examples 5-6). Format: cell-based. The settings on record: for IC50: TNF added with compound, incubated overnight (approximately 16 hours); for VCAM-1 inhibition at [μM]: at 50 μM. Here is the method: Two to four confluent P150 plates are trypsinized and the cells transferred to a 50 mL conical centrifuge tube. The cells are pelleted, resuspended, and counted using the trypan blue exclusion method.
Cells are resuspended at a concentration of 36,000 cells/mL and 1 mL is aliquoted per well.
Cells are split into 24 well tissue culture plates. The cells in each well should be approximately 90-95% confluent by the following day. Cells should not be older than passage 8.
Compounds are initially screened at 50 μM and 10 μM. A 50 mM stock solution for each compound is prepared in culture medium. The stock solution is diluted to 5 mM and 1 mM. When 10 μL of the 5 mM solution is added to the well (1 mL medium/well), the final concentration will be 50 μM. Adding 10 μL of the 1 mM solution to the well will give a final concentration of 10 μM.
Compounds which will not go into solution in culture medium are resuspended in DMSO at a concentration of 25 mM. The stock solution is then diluted to the final concentration in culture medium. The old medium is aspirated and 1 mL of the new medium with the compound is added. For example, if the final concentration is 50 µM, the 2 μL of the 25 mM stock is added per mL of culture medium. The […] solution is diluted for lower concentrations.
The compounds are added to the plate (each compound is done in duplicate). One plate is done for VCAM expression and one plate is done for ICAM expression.
Immediately after the compounds are added, TNF is added to each well. 100 units/mL TNF is usually added to each well. Since each lot of TNF varies in the number of units, each new lot is titrated to determine the optimum concentration. Therefore this concentration will change. If 100 units/mL is being used, dilute the TNF to 10 units/μL and add 10 μL to each well.
(§1) The plates are incubated at 37° C., 5% CO2 overnight (approximately 16 hours). The next day the plates are checked under the microscope to see if there are any visual signs of toxicity. Records are made of any cell death, debris, or morphology changes, as well as insoluble compounds (particulate or turbity).
In order to assess MCP-1, the media (500 μL) is saved and frozen at −70° C. Wash cells once with roughly 1 ml/well of Hanks Balance Salt Solution (HBSS) or PBS. Gently empty the wash solution and then tap the plate onto paper towels. Add either 250 μL/well of HBSS+5% FCCS to the plank (no primary antibody wells) or 250 μL/well of primary antibody diluted in HBSS+5% FCS. Incubate for 30 minutes at 37° C. Wash the wells twice with 0.5 mL/well HBSS or PBS and gently tap the plates onto paper towels after the last wash. Add 250 μL/well of HRP-conjugated second antibody diluted in HBSS+5% FCS to every well including the blank wells (no primary antibody). Incubate at 37° C. for 30 minutes. Wash the wells four times with 0.5 mL/well HBSS or PBS and gently tap the plates onto paper towels after the last wash. Add 250 μL/well of substrate solution. Incubate at room temperature in the dark until there is adequate color development (blue). Note the length of time incubation was performed (typically 15-30 minutes). Add 75 μL/well stopper solution (8N sulfuric acid), and read at 450 nm.

Another data set concerns cells. Format: cell-based. Set-up: unit not given beside the values. On the procedure: as §1

For orientation: IC50 means the concentration needed to halve the response being measured. For the molecule “Butanedioic acid, (1-methylethylidine)bis[thio[2,6-bi(1,1-dimethylethyl)-4,1-phenylene}}ester”, the IC50 in the data set with VCAM-1 was > 50 µM. For the same molecule, the LD50 with cells is reported as 25.

In the case of `CC(C)(C)c1cc(SCc2ccc(CC(=O)O)cc2)cc(C(C)(C)C)c1O` [2,6-di-tert-butyl-4-thio-(4′(methyl)phenylacetic acid)) phenol], the IC50 in the data set on VCAM-1 is 80 µM. Further, the LD50 in the data set on cells is 200.

In the case of `CC(C)(C)c1cc(SCc2ccc(C(=O)O)cc2)cc(C(C)(C)C)c1O` [2,6-di-tert-butyl-4-thio(4′(methyl)benzoic acid)phenol], the IC50 with VCAM-1 is > 50 µM. For the same molecule, the LD50 in the data set with cells is given as >100. With `CCCCC(OC(C)=O)Sc1cc(C(C)(C)C)c(O)c(C(C)(C)C)c1` (stereo not drawn) [2,6-di-tert-butyl-4-thio((1′-(acetoxy))pentyl)phenol], the LD50 with cells was found to be 100. Turning to `CC(C)(C)c1cc(SCc2ccc(C(=O)O)o2)cc(C(C)(C)C)c1O` [2,6-di-tert-butyl-4-thio((2′-furancarboxylic acid)-5-methyl)phenol], the IC50 in the data set with VCAM-1 came to 40 µM. The same molecule returned an LD50 in the data set with cells of 400.

`CN(C)CCCSc1cc(C(C)(C)C)c(O)c(C(C)(C)C)c1` [2,6-di-tert-butyl-4-thio(3′-(dimethylamino)propyl))phenol]: the “VCAM-1 inhibition at [μM]” value in the data set with VCAM-1 was 30% at 50. For the same molecule, the LD50 in the data set on cells was found to be 100.

As for `CC(C)(C)c1cc(SCc2ccc([N+](=O)[O-])cc2)cc(C(C)(C)C)c1O` [2,6-di-tert-butyl-4-thio(4′-nitrobenzyl)phenol], in the data set on VCAM-1, the IC50 is 10 µM. In the data set on cells, this molecule registered an LD50 of 200.

In the case of `CC(C)(C)c1cc(SCc2cccc([N+](=O)[O-])c2)cc(C(C)(C)C)c1O` [2,6-di-tert-butyl-4-thio(3′-nitrobenzyl)phenol], the IC50 in the data set on VCAM-1 came to 13 µM. This molecule also yielded an LD50 with cells of 200.

Consider `CC(C)(C)c1cc(SCc2ccc([N+](=O)[O-])cc2[N+](=O)[O-])cc(C(C)(C)C)c1O` [2,6-di-tert-butyl-4-thio(2′,4′-dinitrobenzyl)phenol], for which the IC50 with VCAM-1 came out at 8 µM. Also, the LD50 in the data set with cells is reported as 400.

Take `CC(C)(C)c1cc(SCCCC(=O)O)cc(C(C)(C)C)c1O` [2,6-di-tert-butyl-4-thio(butanoic acid)phenol]: the IC50 with VCAM-1 is 75 µM. Besides, in the data set with cells, the LD50 is listed as 200.

For `CC(C)(Sc1cc(C(C)(C)C)c(O)c(C(C)(C)C)c1)Sc1cc(C(C)(C)C)c(OCc2ccc([N+](=O)[O-])cc2)c(C(C)(C)C)c1` [Phenol, 4-[[1-[3,5-bis(1,1-dimethylethyl)4-[(4-nitrophenyl)methoxy]phenyl]thio]-1-methylethyl]thio]2,6-bis(1,1-dimethylethyl)-], the “VCAM-1 inhibition at [μM]” value with VCAM-1 is 30% at 50. For the same molecule, the LD50 in the data set on cells is >100.

As to `CC(C)(C)c1cc(SCCc2ccc([N+](=O)[O-])cc2)cc(C(C)(C)C)c1O` [2,6-di-tert-butyl-4-thio(4′-nitrophenethyl)phenol], the IC50 in the data set with VCAM-1 came to 15 µM. For the same molecule, in the data set on cells, the LD50 came to 0.4. For `CC(C)(C)c1cc(S(=O)(=O)Cc2ccc([N+](=O)[O-])cc2)cc(C(C)(C)C)c1O` [2,6-di-tert-butyl-4-(sulfonyl-(4′-nitrobenzyl))phenol] the same measures were 40 µM and 100. For the molecule `CC(C)(C)c1cc(SCc2ccc(C(F)(F)F)cc2)cc(C(C)(C)C)c1O` [(2,6-di-tert-butyl-4-thio(4′-(trifluoromethyl)benzyl)phenol], in the data set on VCAM-1, the half-inhibitory concentration (IC50) amounted to 5 µM. In the data set with cells, the LD50 is 300. For `CC(C)(C)c1cc(SCc2ccc(CCO)cc2)cc(C(C)(C)C)c1O` [2,6-di-tert-butyl-4-thio(4′-(methyl)phenylethyl alcohol))phenol], in that order: 15 µM and 50. For `CC(=O)Oc1ccc(CSc2cc(C(C)(C)C)c(O)c(C(C)(C)C)c2)cc1` [2,6-di-tert-butyl-4-thio(4′-acetoxybenzyl)phenol], in that order: 18 µM and 75. For `CN(C)S(=O)(=O)c1ccc(CSc2cc(C(C)(C)C)c(O)c(C(C)(C)C)c2)cc1` [2,6-di-tert-butyl-4-thio(4′-methyl-N,N-dimethylbenzene-sulfonamide)phenol], in that order: 20 µM and 350. In the case of `CC(C)(Sc1cc(C(C)(C)C)c(O)c(C(C)(C)C)c1)Sc1cc(C(C)(C)C)c(OCCCCO)c(C(C)(C)C)c1` [Phenol, 4-[[1-[[3,5-bis(1,1-dimethylethyl)-4-(4-hydroxybutoxy)phenyl]thio]-1-methylethyl]thio]-2,6-bis(1,1-dimethylethyl)-], in the data set with VCAM-1 (16 h), the IC50 stood at 125 µM. Take “Butanedioic acid, mono[4-[[1-[[3,5-bis(1,1-dimethylethyl)-4-methoxyphenyl]thio]1-methylethyl]thio]-2,6-bis(1,1-dimethylethyl)phenyl] ester”: the IC50 in the data set on VCAM-1 was > 50 µM. Regarding `CCOCC(O)COc1c(C(C)(C)C)cc(SC(C)(C)Sc2cc(C(C)(C)C)c(O)c(C(C)(C)C)c2)cc1C(C)(C)C` (stereo not drawn) [Phenol, 4-[[1-[[3,5-bis(1,1-dimethylethyl)-4-(3-ethoxy-2-hydroxypropoxy)phenyl]thio]-1-methylethyl]thio]-2,6-bis(1,1-dimethylethyl)-], the IC50 in the data set with VCAM-1 (16 h) amounted to 75 µM.
